pEC50: −log10 of the molar value.

The assay has as its system monocytic THP1 cells infected with HIV VSV-G pseudotyped GFP-NEF reporter virus. The experiment in a line: cells. Format: cell-based. The settings on record: Human immunodeficiency virus 1, THP-1, 24 h.
As a reminder, the pEC50 is −log10 of the EC50, conventionally taken in molar units. Read a high pEC50 as a small EC50. The compound `Cc1cc(/C=C/C#N)cc(C)c1Oc1nc(NC23CC(C#N)(C2)C3)nc2ccn(C)c12` [Example 250, 3-[[4-[4-[(E)-2-cyanovinyl]-2,6-dimethyl-phenoxy]-5-methyl-pyrrolo[3,2-d]pyrimidin-2-yl]amino]bicyclo[1.1.1]pentane-1-carbonitrile] showed a negative-log EC50 (pEC50) of 7.19.

Regarding `Cc1cc(/C=C/C#N)cc(C)c1Oc1nc(NC23CC(C#N)(C2)C3)nc2nn3ccccc3c12` [Compound 299, (E)-3-((4-(4-(2-cyanovinyl)-2,6-dimethylphenoxy)pyrido[1′,2′:1,5]pyrazolo[3,4-d]pyrimidin-2-yl)amino)bicyclo[1.1.1]pentane-1-carbonitrile], the negative-log EC50 (pEC50) is 7.40.

`Cc1cc(/C=C/C#N)cc(C)c1Oc1nc(NC23CC(C#N)(C2)C3)nc2[nH]nc(Br)c12` [Compound 90, (E)-3-((3-bromo-4-(4-(2-cyanovinyl)-2,6-dimethylphenoxy)-1H-pyrazolo[3,4-d]pyrimidin-6-yl)amino)bicyclo[1.1.1]pentane-1-carbonitrile] showed a pEC50 of 7.60.

The compound `COC(F)(F)C1NC(=O)c2nc(NC34CC(C#N)(C3)C4)nc(Oc3c(C)cc(/C=C/C#N)cc3C)c21` (stereo not shown) [Example 255, (E)-3-((4-2-((2-cyanovinyl)-2,6-dimethylphenoxy)-5-(difluoro(methoxy)methyl)-7-oxo-6,7-dihydro-5H-pyrrolo[3,4-d]pyrimidin-2-yl)amino)bicyclo[1.1.1]pentane-1-carbonitrile] gave a pEC50 of 7.28.

With `Cc1cc(/C=C/C#N)cc(C)c1Oc1nc(NC23CC(C#N)(C2)C3)nc2nnn(C(F)F)c12` (single isomer, unassigned) [Compound 11, (E)-3-((7-(4-(2-cyanovinyl)-2,6-dimethylphenoxy)-1-(difluoromethyl)-1H-[1,2,3]triazolo[4,5-d]pyrimidin-5-yl)amino)bicyclo[1.1.1]pentane-1-carbonitrile], the negative-log EC50 (pEC50) was 7.56.

As to `Cc1cc(/C=C/C#N)cc(C)c1Oc1nc(NC23CC(C#N)(C2)C3)nc2[nH]nc(C(C)C)c12` [Compound 126, 3-[[4-[4-[(E)-2-cyanovinyl]-2,6-dimethyl-phenoxy]-3-isopropyl-1H-pyrazolo[3,4-d]pyrimidin-6-yl]amino]bicyclo[1.1.1]pentane-1-carbonitrile], the negative logarithm of the EC50 (pEC50) was 6.93.

Compound `CCN1C(=O)c2nc(NC34CC(C#N)(C3)C4)nc(Oc3c(C)cc(/C=C/C#N)cc3C)c2C1C` (stereo not shown) [Example 204, (E)-3-((4-(4-(2-cyanovinyl)-2,6-dimethylphenoxy)-6-ethyl-5-methyl-7-oxo-6,7-dihydro-5H-pyrrolo[3,4-d]pyrimidin-2-yl)amino)bicyclo[1.1.1]pentane-1-carbonitrile] had a pEC50 of 7.63.

`Cc1cc(/C=C/C#N)cc(C)c1Oc1nc(NC23CC(C#N)(C2)C3)nc2nn(CC(F)F)cc12` [Example 234, (E)-3-((4-(4-(2-cyanovinyl)-2,6-dimethylphenoxy)-2-(2,2-difluoroethyl)-2H-pyrazolo[3,4-d]pyrimidin-6-yl)amino)bicyclo[1.1.1]pentane-1-carbonitrile] showed a negative-log EC50 (pEC50) of 6.48.

Compound `Cc1cc(/C=C/C#N)cc(C)c1Oc1nc(NC23CC(C#N)(C2)C3)nc2c1[C@H](C)N(c1cnn(C)c1)C2=O` [Compound 312, (S,E)-3-((4-(4-(2-cyanovinyl)-2,6-dimethylphenoxy)-5-methyl-6-(1-methyl-1H-pyrazol-4-yl)-7-oxo-6,7-dihydro-5H-pyrrolo[3,4-d]pyrimidin-2-yl)amino)bicyclo[1.1.1]pentane-1-carbonitrile] had a negative-log EC50 (pEC50) of 7.82.

The compound `Cc1cc(/C=C/C#N)c(C)c(C)c1Oc1nc(NC23CC(C#N)(C2)C3)nc2nn(C)cc12` [Compound 8, (E)-3-((4-(4-(2-cyanovinyl)-2,3,6-trimethylphenoxy)-2-methyl-2H-pyrazolo[3,4-d]pyrimidin-6-yl)amino)bicyclo[1.1.1]pentane-1-carbonitrile] had a negative-log EC50 (pEC50) of 7.35.

Source of the values: US20250333424A1, “ANTIVIRAL COMPOUNDS” (Gilead Sciences, Inc., priority 2024, published 2025).
